According to ChEMBL document CHEMBL1909046, “DrugMatrix in vitro pharmacology data”:

Experiments:
[1] = target: T1, Vasoactive intestinal polypeptide receptor 1 (Homo sapiens, UniProt P32241); format: cell membranes, Membrane; settings: ht-29; note: in other assays of this panel Not Active means under 50% inhibition at 10 µM
T1 sequence (P32241 whole entry): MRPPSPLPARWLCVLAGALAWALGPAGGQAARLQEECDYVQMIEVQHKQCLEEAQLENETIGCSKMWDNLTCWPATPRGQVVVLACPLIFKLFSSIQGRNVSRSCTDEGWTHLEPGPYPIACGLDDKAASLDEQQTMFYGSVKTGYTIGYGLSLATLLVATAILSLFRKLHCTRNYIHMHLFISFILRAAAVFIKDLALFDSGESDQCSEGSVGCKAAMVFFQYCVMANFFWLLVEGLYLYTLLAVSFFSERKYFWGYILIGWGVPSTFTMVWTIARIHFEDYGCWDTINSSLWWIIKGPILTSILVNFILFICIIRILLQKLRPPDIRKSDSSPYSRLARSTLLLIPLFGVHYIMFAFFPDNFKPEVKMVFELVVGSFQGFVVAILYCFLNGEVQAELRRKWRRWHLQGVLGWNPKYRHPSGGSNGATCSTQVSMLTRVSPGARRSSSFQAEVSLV

[2] = target: Protein kinase C alpha type (Homo sapiens, UniProt P17252); format: cell-based; settings: sf9;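 note: inhibition of PKCalpha kinase activity measured in an enzyme assay with histone as the phosphorylation substrate; in other assays of this panel Not Active means under 50% inhibition at 10 µM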
[3] = target: Epidermal growth factor receptor (Homo sapiens, UniProt P00533); assay: DRUGMATRIX: Protein Tyrosine Kinase, EGF Receptor enzyme inhibition (substrate: Poly(Glu:Tyr)); format: cell-based, Insect cells; settings: insect cells, Not Active = under 50% inhibition at 10 µM
Cytochrome P450 2D6 = Cytochrome P450 2D6 (Homo sapiens, UniProt P10635); note: in other assays of this panel Not Active means under 50% inhibition at 10 µM
Cannabinoid receptor 1 = Cannabinoid receptor 1 (Homo sapiens, UniProt P21554); format: cell membranes, Chem-1, Membrane; note: in other assays of this panel Not Active means under 50% inhibition at 10 µM
Androgen receptor = target: T2, Androgen receptor (Rattus norvegicus, UniProt P15207); note: in other assays of this panel Not Active means under 50% inhibition at 10 µM
T2 sequence (P15207 whole entry): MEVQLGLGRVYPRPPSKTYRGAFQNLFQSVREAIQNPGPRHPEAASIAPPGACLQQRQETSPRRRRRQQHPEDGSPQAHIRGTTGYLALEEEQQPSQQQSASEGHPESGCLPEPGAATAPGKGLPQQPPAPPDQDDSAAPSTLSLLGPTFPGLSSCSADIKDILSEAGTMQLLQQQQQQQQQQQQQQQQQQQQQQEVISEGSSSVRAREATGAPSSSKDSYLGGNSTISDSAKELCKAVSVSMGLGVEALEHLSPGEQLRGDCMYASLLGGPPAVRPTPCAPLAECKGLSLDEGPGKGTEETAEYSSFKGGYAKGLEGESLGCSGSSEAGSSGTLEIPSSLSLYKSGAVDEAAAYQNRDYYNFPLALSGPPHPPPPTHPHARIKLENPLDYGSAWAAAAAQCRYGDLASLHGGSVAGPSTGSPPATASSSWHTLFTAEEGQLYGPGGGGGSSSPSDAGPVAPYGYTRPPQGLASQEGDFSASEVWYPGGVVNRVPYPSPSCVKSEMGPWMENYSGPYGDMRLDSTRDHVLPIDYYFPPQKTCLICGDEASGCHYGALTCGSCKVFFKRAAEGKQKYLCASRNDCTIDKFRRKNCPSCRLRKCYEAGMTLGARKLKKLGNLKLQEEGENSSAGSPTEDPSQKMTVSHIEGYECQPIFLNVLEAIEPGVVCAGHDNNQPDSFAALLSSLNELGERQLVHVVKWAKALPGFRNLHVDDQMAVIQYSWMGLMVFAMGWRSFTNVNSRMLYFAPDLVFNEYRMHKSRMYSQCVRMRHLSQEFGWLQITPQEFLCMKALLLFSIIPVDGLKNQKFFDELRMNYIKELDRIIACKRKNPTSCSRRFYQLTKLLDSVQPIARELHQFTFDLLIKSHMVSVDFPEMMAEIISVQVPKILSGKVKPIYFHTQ

[4] = target: T3, Alpha-2A adrenergic receptor (Homo sapiens, UniProt P08913); format: cell membranes, Sf9, Membrane; settings: sf9; note: in other assays of this panel Not Active means under 50% inhibition at 10 µM
T3 sequence (P08913 whole entry): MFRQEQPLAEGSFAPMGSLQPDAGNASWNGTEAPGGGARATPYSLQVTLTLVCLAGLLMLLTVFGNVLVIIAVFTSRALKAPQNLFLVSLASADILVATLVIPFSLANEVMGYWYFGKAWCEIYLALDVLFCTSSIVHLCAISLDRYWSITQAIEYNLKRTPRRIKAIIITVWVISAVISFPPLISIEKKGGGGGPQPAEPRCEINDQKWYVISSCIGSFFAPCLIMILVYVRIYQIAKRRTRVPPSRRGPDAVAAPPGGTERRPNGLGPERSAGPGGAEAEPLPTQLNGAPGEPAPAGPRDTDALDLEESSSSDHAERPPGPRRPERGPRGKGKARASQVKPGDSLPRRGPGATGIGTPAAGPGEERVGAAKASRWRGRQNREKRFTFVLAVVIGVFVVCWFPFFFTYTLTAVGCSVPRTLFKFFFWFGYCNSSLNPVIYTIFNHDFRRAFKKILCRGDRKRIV

Cytochrome P450 1A2 = target: T4, Cytochrome P450 1A2 (Homo sapiens, UniProt P05177); note: in other assays of this panel Not Active means under 50% inhibition at 10 µM
T4 sequence (P05177 whole entry): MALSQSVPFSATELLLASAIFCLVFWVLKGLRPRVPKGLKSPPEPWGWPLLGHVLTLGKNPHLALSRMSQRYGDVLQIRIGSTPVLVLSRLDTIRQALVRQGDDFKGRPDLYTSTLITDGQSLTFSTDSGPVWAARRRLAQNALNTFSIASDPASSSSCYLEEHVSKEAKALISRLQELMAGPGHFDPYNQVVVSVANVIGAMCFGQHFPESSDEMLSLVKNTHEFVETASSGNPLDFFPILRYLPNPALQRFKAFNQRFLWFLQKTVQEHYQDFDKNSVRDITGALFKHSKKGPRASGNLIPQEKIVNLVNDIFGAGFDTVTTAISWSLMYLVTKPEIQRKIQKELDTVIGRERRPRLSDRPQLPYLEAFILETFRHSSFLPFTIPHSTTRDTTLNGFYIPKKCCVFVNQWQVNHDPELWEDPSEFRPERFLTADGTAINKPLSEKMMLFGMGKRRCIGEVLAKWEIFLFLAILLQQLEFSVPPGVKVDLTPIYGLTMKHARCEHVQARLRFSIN

Sequence of Cannabinoid receptor 1 (P21554 whole entry): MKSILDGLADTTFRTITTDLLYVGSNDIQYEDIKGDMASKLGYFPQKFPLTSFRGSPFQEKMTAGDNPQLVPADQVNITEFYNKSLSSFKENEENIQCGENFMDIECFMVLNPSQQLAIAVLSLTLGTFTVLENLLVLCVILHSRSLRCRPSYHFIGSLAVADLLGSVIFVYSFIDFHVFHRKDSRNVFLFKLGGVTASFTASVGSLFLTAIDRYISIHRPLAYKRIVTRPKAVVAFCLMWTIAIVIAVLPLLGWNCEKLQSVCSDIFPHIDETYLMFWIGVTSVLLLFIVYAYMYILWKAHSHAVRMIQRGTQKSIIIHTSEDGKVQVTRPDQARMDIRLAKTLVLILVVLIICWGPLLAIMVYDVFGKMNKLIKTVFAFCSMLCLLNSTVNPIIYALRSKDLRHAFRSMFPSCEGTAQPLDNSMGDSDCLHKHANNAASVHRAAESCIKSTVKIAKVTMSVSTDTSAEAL
Sequence of Cytochrome P450 2D6 (P10635 whole entry): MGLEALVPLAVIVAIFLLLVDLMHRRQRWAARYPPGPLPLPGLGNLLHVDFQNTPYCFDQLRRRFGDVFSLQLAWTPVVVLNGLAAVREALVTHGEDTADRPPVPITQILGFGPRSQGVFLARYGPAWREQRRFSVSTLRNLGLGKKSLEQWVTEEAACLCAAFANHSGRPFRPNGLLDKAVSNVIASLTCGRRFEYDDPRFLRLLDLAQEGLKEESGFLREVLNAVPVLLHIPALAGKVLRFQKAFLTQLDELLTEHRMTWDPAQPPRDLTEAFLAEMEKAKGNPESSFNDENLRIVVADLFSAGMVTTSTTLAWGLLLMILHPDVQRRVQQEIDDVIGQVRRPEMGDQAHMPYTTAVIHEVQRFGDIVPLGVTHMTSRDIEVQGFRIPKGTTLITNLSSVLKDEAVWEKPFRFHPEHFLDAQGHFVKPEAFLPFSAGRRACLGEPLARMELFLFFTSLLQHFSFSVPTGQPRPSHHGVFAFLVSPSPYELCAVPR

| Compound | IC50 [1] | IC50 [2] | IC50 [3] | IC50 (Cytochrome P450 2D6) [nM] | IC50 (Cannabinoid receptor 1; chem-1) | IC50 (Androgen receptor) | IC50 [4] | Ki [1] | Ki [2] | Ki [3] | Ki (Cannabinoid receptor 1; chem-1) | Ki [4] | Ki (Androgen receptor) | IC50 (Cytochrome P450 1A2) [nM] | IC50 (Cannabinoid receptor 1; read-out: IC50) [nM] | Ki (Cannabinoid receptor 1; read-out: Ki) [nM] | IC50 ([3]; read-out: IC50) [nM] |
| --- | --- | --- | --- | --- | --- | --- | --- | --- | --- | --- | --- | --- | --- | --- | --- | --- | --- |
| Cc1cc(C(C)(C)C)c(O)c(C)c1CC1=NCCN1 [OXYMETAZOLINE] | Not Active | Not Active | Not Active | 200 | Not Active | Not Active | – | – | – | – | – | – | – | – | – | – | – |
| C[N+](C)(C)CCOP(=O)([O-])OC[C@H](O)CO | Not Active | Not Active | Not Active | – | Not Active | Not Active | Not Active | – | – | – | – | – | – | – | – | – | – |
| POVIDONE | Not Active | Not Active | Not Active | – | Not Active | Not Active | Not Active | Not Active | Not Active | Not Active | Not Active | Not Active | Not Active | – | – | – | – |
| CN(Cc1cc(Br)cc(Br)c1N)C1CCCCC1 [BROMHEXINE] | Not Active | Not Active | Not Active | 196 | Not Active | – | Not Active | – | – | – | – | – | – | – | – | – | – |
| c1ccc2c(c1)Nc1ccccc1S2 [PHENOTHIAZINE] | Not Active | Not Active | Not Active | – | – | – | Not Active | – | – | – | – | – | – | 16 | 24900 | 19600 | – |
| CHROMIC CHLORIDE | Not Active | Not Active | – | – | Not Active | Not Active | Not Active | Not Active | Not Active | – | Not Active | Not Active | Not Active | – | – | – | 2960 |
| O=c1[nH]c2ccccc2c2ccccc12 | Not Active | Not Active | Not Active | – | Not Active | Not Active | Not Active | – | – | – | – | – | – | 16 | – | – | – |
| C[C@H](C(=O)O)c1ccc2oc(-c3ccc(F)cc3)nc2c1 [FLUNOXAPROFEN] | Not Active | Not Active | Not Active | – | Not Active | Not Active | Not Active | – | – | – | – | – | – | – | – | – | – |
| O=C(O)CNCP(=O)(O)O [GLYPHOSATE] | Not Active | Not Active | Not Active | – | Not Active | Not Active | Not Active | – | – | – | – | – | – | – | – | – | – |
| C[N+](C)(C)CCOC(N)=O.[Cl-] [CARBACHOL] | Not Active | Not Active | Not Active | – | Not Active | Not Active | Not Active | – | – | – | – | – | – | – | – | – | – |
| CC(=O)[C@]1(O)Cc2c(O)c3c(c(O)c2[C@@H](O[C@H]2C[C@H](N)[C@H](O)[C@H](C)O2)C1)C(=O)c1ccccc1C3=O [IDARUBICIN] | Not Active | Not Active | Not Active | – | Not Active | Not Active | Not Active | – | – | – | – | – | – | – | – | – | – |
